From patent US7645752B2, “Sulfonyl substituted 1H-indoles as ligands for the 5-hydroxytryptamine receptors” (Wyeth LLC, priority 2006, dated 2010)
Counter-ions that a name gives are not always drawn. Like-named read-outs stand apart in the source and are kept apart here.

What was measured:
[1] = molecular target: T1, human cloned 5-HT6 receptors (Homo sapiens, UniProt P50406); assay: 5-HT6 binding affinity, [3H]-LSD displacement on membranes of Hela cells; conditions: for inhibition at 1 µM: 5-HT6 binding, at 1 micromole, read-out: % inhibition at 1 micromole
T1 construct: expressed in transfected cells; host or cells: HeLa cells
Procedure: The affinity of test compounds for the 5-HT6 receptor is evaluated in the following manner. Cultured Hela cells expressing human cloned 5-HT6 receptors are harvested and centrifuged at low speed (1,000×g) for 10.0 min to remove the culture media. The harvested cells are suspended in half volume of fresh physiological phosphate buffered saline solution and recentrifuged at the same speed. This operation is repeated. The collected cells are then homogenized in ten volumes of 50 mM Tris.HCl (pH 7.4) and 0.5 mM EDTA. The homogenate is centrifuged at 40,000×g for 30.0 min and the precipitate is collected. The obtained pellet is resuspended in 10 volumes of Tris.HCl buffer and recentrifuged at the same speed. The final pellet is suspended in a small volume of Tris.HCl buffer and the tissue protein content is determined in aliquots of 10-25 microliter volumes. […] The volume of the suspended cell membranes is adjusted to give a tissue protein concentration of 1.0 mg/mL of suspension. The prepared membrane suspension (10 times concentrated) is aliquoted in 1.0 mL volumes and stored at −70° C. until used in subsequent binding experiments.
Binding experiments are performed in a 96 well microtiter plate format in a total volume of 200 microliters. […] The test compounds are added in 20.0 microliter volume.
The bound complex caught on the filter disk is allowed to air dry and the radioactivity is measured in a Packard TopCount® equipped with six photomultiplier detectors, after the addition of 40.0 microliter Microscint®-20 scintillant to each shallow well.
Binding in the presence of varying concentrations of test compound is expressed as a percentage of specific binding in the absence of test compound. The results are plotted as log % bound versus log concentration of the test compound.

[2] = Table 1, [3H]-LSD 3.0 nM, Hela cell membranes, read-out: Ki (nM) @ 5-HT6 receptor

T1 sequence (P50406 whole entry): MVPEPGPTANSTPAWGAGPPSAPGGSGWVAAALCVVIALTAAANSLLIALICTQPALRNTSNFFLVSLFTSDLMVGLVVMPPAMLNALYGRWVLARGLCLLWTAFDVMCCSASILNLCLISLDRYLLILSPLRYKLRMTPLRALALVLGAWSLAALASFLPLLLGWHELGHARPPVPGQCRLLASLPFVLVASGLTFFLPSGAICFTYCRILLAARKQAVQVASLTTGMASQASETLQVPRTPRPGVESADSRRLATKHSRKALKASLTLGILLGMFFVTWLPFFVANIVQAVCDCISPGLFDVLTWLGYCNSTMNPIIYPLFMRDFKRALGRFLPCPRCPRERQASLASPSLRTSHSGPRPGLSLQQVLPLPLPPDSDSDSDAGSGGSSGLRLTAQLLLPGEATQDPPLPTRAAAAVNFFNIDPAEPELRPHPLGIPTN

Structure (SMILES)	Ki [1, 2]	also measured
CCN(C)CCc1cccc2[nH]cc(S(=O)(=O)c3ccccc3)c12 (as salt: hydrochloride) [Example 40, N-ethyl-N-methyl-N-{2-[3-(phenylsulfonyl)-1H-indol-4-yl]ethyl}amine]	–	melting point: 92 to 98 °C
CN(C)CCc1cccc2c(S(=O)(=O)c3ccccc3)c[nH]c12 (as salt: hydrochloride) [Example 18, N,N-dimethyl-N-{2-[3-(phenylsulfonyl)-1H-indol-7-yl]ethyl}amine]	–	melting point: 205 to 208 °C (dec.)
O=S(=O)(c1ccccc1)c1c[nH]c2ccc(CCN3CCOCC3)cc12 (as salt: hydrochloride) [Example 11, 5-(2-morpholin-4-ylethyl)-3-(phenylsulfonyl)-1H-indole]	–	melting point: 250 to 255 °C
CC(NCCc1cccc2[nH]cc(S(=O)(=O)c3ccccc3)c12)C(C)(C)C (stereo not shown) (as salt: hydrochloride) [Example 46, N-{2-[3-(phenylsulfonyl)-1H-indol-4-yl]ethyl}-N-(1,2,2-trimethylpropyl)amine]	–	melting point: 275 °C
O=S(=O)(c1ccccc1)c1c[nH]c2ccc(CCN3CCCC3)cc12 (as salt: hydrochloride) [Example 9, 3-(phenylsulfonyl)-5-(2-pyrrolidin-1-ylethyl)-1H-indole]	–	melting point: 230 to 232 °C
O=S(=O)(c1ccccc1)c1c[nH]c2ccc(CCNC3CCCC3)cc12 (as salt: hydrochloride) [Example 5, N-{2-[3-(phenylsulfonyl)-1H-indol-5-yl]ethyl}cyclopentanamine]	–	melting point: 252 °C
CCN(C)CCc1cccc2c(S(=O)(=O)c3ccccc3)c[nH]c12 (as salt: hydrochloride) [Example 24, N-ethyl-N-methyl-N-{2-[3-(phenylsulfonyl)-1H-indol-7-yl]ethyl}amine]	–	melting point: 215 to 218 °C (dec.)
O=S(=O)(c1ccccc1)c1c[nH]c2c(CCN3CCCC3)cccc12 (as salt: hydrochloride) [Example 26, 3-(phenylsulfonyl)-7-(2-pyrrolidin-1-ylethyl)-1H-indole]	–	melting point: 250 to 252 °C (dec.)
O=S(=O)(c1cccc(F)c1)c1c[nH]c2cccc(CCN3CCCCC3)c12 [Example 75, 3-(3-fluorophenylsulfonyl)-4-(2-piperidin-1-ylethyl)-1H-indole]	–	inhibition at 1 µM ([1]; Table 1): 69%
CCN(C)CCc1ccc2[nH]cc(S(=O)(=O)c3ccccc3)c2c1 [Example 7, N-ethyl-N-methyl-N-{2-[3-(phenylsulfonyl)-1H-indol-5-yl]ethyl}amine]	7 nM	–
CCN(CC)CCc1ccc2c(S(=O)(=O)c3ccccc3)c[nH]c2c1 [Example 97, N,N-diethyl-N-{2-[3-(phenylsulfonyl)-1H-indol-6-yl]ethyl}amine]	12.3 nM	–
CCN(CC)CCc1ccc2[nH]cc(S(=O)(=O)c3ccccc3)c2c1 [Example 8, N,N-diethyl-N-{2-[3-(phenylsulfonyl)-1H-indol-5-yl]ethyl}amine]	17 nM	–
O=S(=O)(c1ccccc1)c1c[nH]c2cccc(CCC3CNCCO3)c12 (stereo not shown) [Example 100, 4-(2-morpholin-6-ylethyl)-3-(phenylsulfonyl)-1H-indole]	–	inhibition at 1 µM ([1]; Table 1): 54%
CCC(C)CNCCc1ccc2c(S(=O)(=O)c3ccccc3)c[nH]c2c1 (stereo not shown) [Example 104, {2-[3-(phenylsulfonyl)-1H-indol-6-yl]-ethyl}-(2-methyl-butyl)-amine]	–	inhibition at 1 µM ([1]; Table 1): 69%
CNCCc1cccc2[nH]cc(S(=O)(=O)c3cccc(F)c3)c12 [Example 63, N-methyl-N-{2-[3-(3-fluorophenylsulfonyl)-1H-indol-4-yl]ethyl}amine]	–	inhibition at 1 µM ([1]; Table 1): 61%
CCCNCCc1cccc2c(S(=O)(=O)c3ccccc3)c[nH]c12 [Example 20, N-{2-[3-(phenylsulfonyl)-1H-indol-7-yl]ethyl}-N-propylamine]	9.1 nM	–
CC(C)(C)CNCCc1ccc2c(S(=O)(=O)c3ccccc3)c[nH]c2c1 [Example 106, N-(2,2-dimethylpropyl)-N-{2-[3-(phenylsulfonyl)-1H-indol-6-yl]ethyl}amine]	–	inhibition at 1 µM ([1]; Table 1): 67%
CC(C)(C)CNCCc1cccc2[nH]cc(S(=O)(=O)c3cccc(F)c3)c12 [Example 81, N-(2,2-dimethylpropyl)-N-{2-[3-(3-fluorophenylsulfonyl)-1H-indol-4-yl]ethyl}amine]	–	inhibition at 1 µM ([1]; Table 1): 74%
O=S(=O)(c1ccccc1)c1c[nH]c2cc(CCN3CCCCC3)ccc12 [Example 99, 3-(phenylsulfonyl)-6-(2-piperidin-1-ylethyl)-1H-indole]	–	inhibition at 1 µM ([1]; Table 1): 79%
CN(C)CCc1ccc2[nH]cc(S(=O)(=O)c3ccccc3)c2c1 [Example 1, N,N-dimethyl-N-{2-[3-(phenylsulfonyl)-1H-indol-5-yl]ethyl}amine]	9 nM	–
CCN(CC)CCc1cccc2c(S(=O)(=O)c3ccccc3)c[nH]c12 [Example 25, N,N-diethyl-N-{2-[3-(phenylsulfonyl)-1H-indol-7-yl]ethyl}amine]	21 nM	–
O=S(=O)(c1ccccc1)c1c[nH]c2c(CCNC3CCCC3)cccc12 [Example 23, N-{2-[3-(phenylsulfonyl)-1H-indol-7-yl]ethyl}cyclopentanamine]	18 nM	–
CN(CCc1ccc2c(S(=O)(=O)c3ccccc3)c[nH]c2c1)C1CCCCC1 [Example 96, N-cyclohexyl-N-methyl-N-{2-[3-(phenylsulfonyl)-1H-indol-6-yl]ethyl}amine]	–	inhibition at 1 µM ([1]; Table 1): 75%
O=S(=O)(c1cccc(F)c1)c1c[nH]c2cccc(CCNC3CC3)c12 [Example 67, N-{2-[3-(3-fluorophenylsulfonyl)-1H-indol-4-yl]ethyl}cyclopropanamine]	–	inhibition at 1 µM ([1]; Table 1): 77%
CCNCCc1ccc2c(S(=O)(=O)c3ccccc3)c[nH]c2c1 [Example 88, N-ethyl-N-{2-[3-(phenylsulfonyl)-1H-indol-6-yl]ethyl}amine]	–	Ki [1]: 96.3 nM
O=S(=O)(c1ccccc1)c1c[nH]c2cc(CCN3CCCC3)ccc12 [Example 98, 3-(phenylsulfonyl)-6-(2-pyrrolidin-1-ylethyl)-1H-indole]	–	inhibition at 1 µM ([1]; Table 1): 76%
O=S(=O)(c1ccccc1)c1c[nH]c2c(CCNC3CC3)cccc12 [Example 22, N-{2-[3-(phenylsulfonyl)-1H-indol-7-yl]ethyl}cyclopropanamine]	–	Ki [1]: 5.5 nM
CNCCc1cccc2c(S(=O)(=O)c3ccccc3)c[nH]c12 [Example 19, N-methyl-N-{2-[3-(phenylsulfonyl)-1H-indol-7-yl]ethyl}amine]	2.3 nM	–

Further lines, with some results ahead:

Ki [1, 2]	Structure (SMILES)	also measured
180 nM	O=S(=O)(c1cccc(F)c1)c1c[nH]c2cccc(CCNC3CCCCC3)c12 [Example 70, N-{2-[3-(3-fluorophenylsulfonyl)-1H-indol-4-yl]ethyl}cyclohexanamine]	–
7.5 nM	O=S(=O)(c1ccccc1)c1c[nH]c2c(CCN3CCNCC3)cccc12 [Example 30, 3-(phenylsulfonyl)-7-(2-piperazin-1-ylethyl)-1H-indole]	–
80 nM	CCC(CC)NCCc1cccc2[nH]cc(S(=O)(=O)c3cccc(F)c3)c12 [Example 78, (1-Ethyl-propyl)-{2-[3-(3-fluorophenylsulfonyl)-1H-indol-4-yl]-ethyl}-amine]	–
13 nM	CC(NCCc1cccc2[nH]cc(S(=O)(=O)c3cccc(F)c3)c12)C(C)(C)C (stereo not shown) [Example 80, N-{2-[3-(3-fluorophenylsulfonyl)-1H-indol-4-yl]ethyl}-N-(1,2,2-trimethylpropyl)amine]	–
120 nM	CCC(C)CNCCc1cccc2[nH]cc(S(=O)(=O)c3cccc(F)c3)c12 (stereo not shown) [Example 79, {2-[3-(3-Fluorophenylsulfonyl)-1H-indol-4-yl]-ethyl}-(2-methyl-butyl)-amine]	–
348 nM	NCCc1cccc2[nH]cc(S(=O)(=O)c3cccc(F)c3)c12 [Example 85, {2-[3-(3-fluorophenylsulfonyl)-1H-indol-4-yl]ethyl}amine]	–
13 nM	O=S(=O)(c1ccccc1)c1c[nH]c2c(CCN3CCCCC3)cccc12 [Example 27, 3-(phenylsulfonyl)-7-(2-piperidin-1-ylethyl)-1H-indole]	–
74 nM	O=S(=O)(c1ccccc1)c1c[nH]c2cc(CCN3CCC3)ccc12 [Example 108, 6-(2-Azetidin-1-yl-ethyl)-3-phenylsulfonyl-1H-indole]	–
68 nM	O=S(=O)(c1ccccc1)c1c[nH]c2ccc(CCN3CCNCC3)cc12 [Example 13, 3-(phenylsulfonyl)-5-(2-piperazin-1-ylethyl)-1H-indole]	–
78 nM	O=S(=O)(c1cccc(F)c1)c1c[nH]c2cccc(CCNC3CCCC3)c12 [Example 69, N-{2-[3-(3-fluorophenylsulfonyl)-1H-indol-4-yl]ethyl}cyclopentanamine]	–
39 nM	O=S(=O)(c1ccccc1)c1c[nH]c2ccc(CCN3CCOCC3)cc12 [Example 11, 5-(2-morpholin-4-ylethyl)-3-(phenylsulfonyl)-1H-indole]	–
72 nM	O=S(=O)(c1cccc(F)c1)c1c[nH]c2cccc(CCN3CCCC3)c12 [Example 74, 3-(3-fluorophenylsulfonyl)-4-(2-pyrrolidin-1-ylethyl)-1H-indole]	–
